Read-outs that look alike come from different tables or passages of the source.
Test system: human RS virus A2 strain
Assay: In vitro test for anti-RS virus proliferation inhibitory activity (quantitative RT-PCR of RS virus RNA copy number in infected Vero cells)
Format: cell-based
Details: 72 h, read-out: Anti-RS virus Activity
How it was run: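 Vero cells infected with RSV A2 (1.7×10^4 TCID50/mL in inoculum mix) with compound in 10% FCS EMEM, 3 days at 37 °C, 5% CO2. Lysate viral N-gene RNA quantified by one-step SYBR qRT-PCR; copy number by comparative Ct relative to untreated infected cells.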

[1] = Vero cells infected with human RS virus A2 strain, 3 days of incubation, RS virus RNA copy number by quantitative RT-PCR
[2] = Vero cells infected with human RS virus A2 strain, 3 days of incubation, RS virus N gene RNA copy number by quantitative RT-PCR

Row | SMILES | IC50 [1] [µM] | further results
1 | CS(=O)(=O)N1CCCC[C@H]1c1nc(CCCc2ccccc2)no1 [Compound 2C, 3-(3-phenylpropyl)-5-[(2S)-1-methanesulfonylpiperidin-2-yl]-1,2,4-oxadiazole] | – | IC50 [2]: 10 to 50 µM
2 | CC(C)NC(=O)N1CCC[C@H]1c1nc(CCCc2ccccc2)no1 [Compound 1G, (S)—N-isopropyl-2-(3-(3-phenylpropyl)-1,2,4-oxadiazol-5-yl)pyrrolidine-1-carboxamide] | > 50 | –
3 | O=C(C1CCCCC1)N1CCCC[C@H]1c1nc(CCCc2ccccc2)no1 [Compound 2Y, (S)-cyclohexyl(2-(3-(3-phenylpropyl)-1,2,4-oxadiazol-5-yl)piperidin-1-yl)methanone] | < 10 | –
4 | CC(C)(C)OC(=O)NCc1ccc(CCCc2noc([C@@H]3CCCCN3S(=O)(=O)C3CCCCC3)n2)cc1 [Compound 30B] | 10 to 50 | –
5 | CC(C)CS(=O)(=O)N1CCC[C@H]1c1nc(CCCc2ccccc2)no1 [Compound 1A, 3-(3-phenylpropyl)-5-[(2S)-1-isobutylsulfonylpyrrolidin-2-yl]-1,2,4-oxadiazole] | – | IC50 [2]: > 50 µM
6 | S=C(NCc1ccccc1)N1C[C@H](c2ccccc2)C[C@H]1c1nc(CCCc2ccccc2)no1 [Compound 7AR, (2S,4S)—N-Benzyl-4-phenyl-2-(3-(3-phenylpropyl)-1,2,4-oxadiazol-5-yl) pyrrolidine-1-carbothioamide] | – | IC50 (Vero): 10 to 50 µM
7 | O=S(=O)(N1CCCCC1)N1CCCC[C@H]1c1nc(CCCc2ccccc2)no1 [Compound 2AD, (S)-3-(3-phenylpropyl)-5-(1-(piperidine-1-ylsulfonyl)piperidin-2-yl)-1,2,4-oxadiazole] | – | IC50 (Vero): < 10 µM
8 | CC(C)CS(=O)(=O)N1CC(CC2CCC2)CC1c1nc(CCCc2ccccc2)no1 (stereo not drawn) [Compound 6A, 3-(3-phenylpropyl)-5-(1-isobutylsulfonyl-4-cyclobutylmethylpyrrolidin-2-yl)-1,2,4-oxadiazole] | < 10 | –
9 | O=S(=O)(Cc1ccccc1)N1CC(CC2CCC2)CC1c1nc(CCCc2ccccc2)no1 (stereo not drawn) [Compound 6E, 3-(3-phenylpropyl)-5-(1-benzylsulfonyl-4-cyclobutylmethylpyrrolidin-2-yl)-1,2,4-oxadiazole] | < 10 | –
10 | CC(C)(C)OC(=O)N1C[C@H](F)C[C@H]1c1nc(CCCc2ccccc2)no1 [Compound 8-1, 3-(3-phenylpropyl)-5-[(2S,4R)-1-tert-butoxycarbonyl-4-fluoropyrrolidin-2-yl]-1,2,4-oxadiazole] | < 10 | –
11 | CC(C)(C)OC(=O)N1CCCC[C@H]1c1nc(CCc2ccccc2)no1 [Compound 10-1, 3-(3-phenylethyl)-5-[(2S)-1-tert-butoxycarbonylpiperidin-2-yl]-1,2,4-oxadiazole] | 10 to 50 | –
12 | c1ccc(CCCc2noc([C@@H]3CCCN3CC3CCCCC3)n2)cc1 [Compound 1U, (S)-5-(1-(cyclohexylmethyl)pyrrolidin-2-yl)-3-(3-phenylpropyl)-1,2,4-oxadiazole] | < 10 | –
13 | CC(C)(C)NC(=O)N1C[C@H]2CC[C@]1(c1nc(CCc3ccncc3)no1)CC2 [Compound 13H, (1s, 4s)-N-(tert-butyl)-1-(3-(2-(pyridin-4-yl)ethyl)-1,2,4-oxadiazol-5-yl)-2-azabicyclo[2.2.2]octane-2-carboxamide] | > 50 | –
14 | O=C(NCc1noc([C@@H]2CCCCN2S(=O)(=O)C2CCCCC2)n1)c1ccc2c(c1)OCO2 [Compound 21B, (S)—N-((5-(1-(cyclohexylsulfonyl)piperidin-2-yl)-1,2,4-oxadiazol-3-yl)methyl)benzo[d][1,3]dioxol-5-carboxamide] | > 50 | –
15 | S=C(Nc1ccccc1)N1C[C@H](c2ccccc2)C[C@H]1c1nc(CCCc2ccccc2)no1 [Compound 7AQ, (2S,4S)—N,4-di phenyl-2-(3-(3-phenylpropyl)-1,2,4-oxadiazol-5-yl) pyrrolidine-1-carbothioamide] | – | IC50 (Vero): 10 to 50 µM
16 | O=S(=O)(c1ccccc1)N1CCCC[C@H]1c1nc(CCCc2ccccc2)no1 [Compound 2D, 3-(3-phenylpropyl)-5-[(2S)-1-benzenesulfonylpiperidin-2-yl]-1,2,4-oxadiazole] | – | IC50 [2]: < 10 µM
17 | O=S(=O)(Cc1ccccc1)N1CCCC[C@H]1c1nc(CCCc2ccccc2)no1 [Compound 2E, 3-(3-phenylpropyl)-5-[(2S)-1-benzylsulfonylpiperidin-2-yl]-1,2,4-oxadiazole] | – | IC50 [2]: < 10 µM

Continued, in another order:

Row | IC50 [1] [µM] | SMILES | further results
18 | < 10 | COc1ccc(CCCc2noc([C@@H]3CCCCN3S(=O)(=O)C3CCCCC3)n2)cc1OC [Compound 22B, (S)-5-(1-(cyclohexylsulfonyl)piperidin-2-yl)-3-(3-(3,4-dimethoxyphenyl)propyl)-1,2,4-oxadiazole] | –
19 | < 10 | O=S(=O)(c1ccccc1)N1CC(CC2CCC2)CC1c1nc(CCCc2ccccc2)no1 (stereo not drawn) [Compound 6D, 3-(3-phenylpropyl)-5-(1-benzenesulfonyl-4-cyclobutylmethylpyrrolidin-2-yl)-1,2,4-oxadiazole] | –
20 | < 10 | CN(C)c1ccc(S(=O)(=O)N2C[C@H](F)C[C@H]2c2nc(CCCc3ccccc3)no2)cc1 [Compound 8AK, 4-(((2S,4R)-4-fluoro-2-(3-(3-phenylpropyl)-1,2,4-oxadiazole-5-yl)pyrrolidin-1-yl)sulfonyl)-N,N-dimethylaniline] | –
21 | > 50 | CC(C)(C)OC(=O)N1CCC(S(=O)(=O)N2CC(CC3CCC3)CC2c2nc(CCCc3ccccc3)no2)CC1 (stereo not drawn) [Compound 6AO] | –
22 | 10 to 50 | CS(=O)(=O)N1C[C@H]2CC[C@]1(c1nc(CCc3ccccc3)no1)CC2 [Compound 15C, 5-((1s,4s)-2-(methylsulfonyl)-2-azabicyclo[2.2.2]octan-1-yl)-3-phenethyl-1,2,4-oxadiazole] | –
23 | 10 to 50 | CC(C)(C)OC(=O)N1CCC(CS(=O)(=O)N2CC(CC3CCC3)CC2c2nc(CCCc3ccccc3)no2)CC1 (stereo not drawn) [Compound 6AN, tert-buthyl 4-(((4-(cyclobuthylmethyl)-2-(3-(3-phenylpropyl)-1,2,4-oxadiazole-5-yl)pyrrolidin-1-yl)sulfonyl)methyl)piperidin-1-carboxylate] | –
24 | < 10 | O=S(=O)(c1ccc(F)cc1)N1CC(CC2CCC2)CC1c1nc(CCCc2ccccc2)no1 (stereo not drawn) [Compound 6AJ, 5-(4-(cyclobuthylmethyl)-1-((4-fluorophenyl)sulfonyl)pyrrolidin-2-yl)-3-(3-phenylpropyl)-1,2,4-oxsdiazole] | –
25 | < 10 | CC(C)(C)OC(=O)N1CCCC[C@H]1c1noc(CCCc2ccccc2)n1 [Compound C3-16-1, Tert-butyl (S)-2-(5-(3-phenylpropyl)-1,2,4-oxadiazol-3-yl) piperidine-1-carboxylate] | –
26 | 10 to 50 | COc1ccc(S(=O)(=O)N2CC3(CC3)C[C@H]2c2nc(CCCc3ccccc3)no2)cc1 [Compound 5AI, (S)-5-(5-((4-methoxyphenyl)sulfonyl)-5-azabicyclo[2.4]heptan-6-yl)-3-(3-phenylpropyl)-1,2,4-oxadiazole] | –
27 | < 10 | CC(C)(C)OC(=O)N1[C@@H]2CC[C@@H](C2)[C@H]1c1nc(CCc2ccccc2)no1 [Compound 14-1, Tert-butyl (1R,3S,4S)-3-(3-phenethyl-1,2,4-oxadiazol-5-yl)-2-azabicyclo[2.2.1]heptane-2-carboxylate] | –
28 | 10 to 50 | CC(C)[C@@H]1CC[C@@H](C)C[C@H]1OC(=O)N1CCC[C@H]1c1nc(CCCc2ccccc2)no1 [Compound 1N, (−)-menthyl (S)-2-(3-(3-phenylpropyl)-1,2,4-oxadiazol-5-yl) pyrrolidine-1-carboxylate] | –
29 | < 10 | CC(C)(C)OC(=O)N1C[C@H](c2ccccc2)C[C@H]1c1nnc(CCCc2ccccc2)[nH]1 [Compound 19-1, Tert-butyl (2S,4S)-4-phenyl-2-(5-(3-phenylpropyl)-4H-1,2,4-triazol-3-yl)pyrrolidine-1-carboxylate] | –
30 | < 10 | CC(C)(C)OC(=O)N1CCC(S(=O)(=O)N2CC3(CC3)C[C@H]2c2nc(CCCc3ccccc3)no2)CC1 [Compound 5AO, tert-buthyl (S)-4-((6-(3-(3-phenylpropyl)-1,2,4-oxadiazole-5-yl)-5-azaspiro[2.4]heptan-5-yl)sulfonyl)piperidin-1-carboxylate] | –
31 | 10 to 50 | O=C(NCc1noc([C@@H]2C[C@@H](c3ccccc3)CN2S(=O)(=O)c2ccc(F)cc2)n1)c1ccc2ccccc2n1 [Compound 45AJ, N-((5-((2S,4S)-1-((4-fluorophenyl)sulfonyl)-4-phenylpyrrolidin-2-yl)-1,2,4-oxadiazol-3-yl)methyl)quinoline-2-carboxamide] | –
32 | < 10 | CC(C)(C)OC(=O)N1CCCC[C@H]1c1nc(CCc2ccncc2)no1 [Compound 12-1, Tert-butyl (S)-2-(3-(2-(pyridin-4-yl)ethyl)-1,2,4-oxadiazol-5-yl)piperidine-1-carboxylate] | –
33 | < 10 | CN(C)c1cccc2c(S(=O)(=O)N3CC4(CC4)C[C@H]3c3nc(CCCc4ccccc4)no3)cccc12 [Compound 5AL, (S)-N,N-dimethyll-5-((6-(3-(3-phenylpropyl)-1,2,4-oxadiazole-5-yl)-5-azaspiro[2.4]heptan-5-yl)sulfonyl)naphthalen-1-amine] | –
34 | < 10 | CS(=O)(=O)N1CC(c2ccccc2)C[C@H]1c1nc(CCCc2ccccc2)no1 (stereo in doubt) [Compound 7C, 3-(3-phenylpropyl)-5-[(2S,4S)-1-methanesulfonyl-4-phenylpyrrolidin-2-yl]-1,2,4-oxadiazole] | –
35 | 10 to 50 | CC(C)(C)[S+]([O-])N1CCCC[C@H]1c1nc(CCCc2ccccc2)no1 (single isomer, unassigned) [2W′] | –
36 | < 10 | O=S(=O)(C1CCCCC1)N1CC2(CC2)C[C@H]1c1nc(CCCc2ccccc2)no1 [Compound 5B, 3-(3-phenylpropyl)-5-{(6S)-5-cyclohexylsulfonyl-5-azaspiro[2.4]hept-6-yl}-1,2,4-oxadiazole] | –

Reference: patent US20240327392A1, “HETEROCYCLOALKYL-SUBSTITUTED POLYHETEROAZOLE DERIVATIVES AS MEDICAMENTS FOR TREATING AND/OR PREVENTING RS VIRUS INFECTIONS” (ALBIUS SCIENCES ALPHA PRIVATE LIMITED, priority 2021, published 2024)
